# Measured values published in ChEMBL document CHEMBL4118188, “A small diversity library of α-methyl amide analogs of sulindac for probing anticancer structure-activity relationships” (Bioorg Med Chem Lett, 2018).
# Experiments:
# Type in all cases: functional
# PC-3 = test: Growth inhibition of human PC3 cells measured after 72 hrs by Celltiter-Glo reagent based assay; settings: PC-3, 72 h
# MDA-MB-231 = test: Growth inhibition of human MDA-MB-231 cells measured after 96 hrs by Celltiter-Glo reagent based assay; settings: MDA-MB-231, 96 h
# HT-29 = test: Growth inhibition of human HT-29 cells measured after 72 hrs by Celltiter-Glo reagent based assay; settings: HT-29, 72 h
SMILES,CC50 (PC-3),CC50 (MDA-MB-231),CC50 (HT-29)
CC1=C(C(C)C(=O)N2CCN(CCCN(C)C)CC2)c2cc(F)ccc2/C1=C\c1ccc([S+](C)[O-])cc1 (stereo unspecified),> 50 µM,> 50 µM,32 µM
CC1=C(C(C)C(=O)N(C)CCN(C)C(=O)[C@@H]2CCCN2)c2cc(F)ccc2/C1=C\c1ccc([S+](C)[O-])cc1 (stereo partly specified),27.9 µM,> 50 µM,20.1 µM
CC1=C(C(C)C(=O)N(CCCNC(C)C)C(C)C)c2cc(F)ccc2/C1=C\c1ccc([S+](C)[O-])cc1 (stereo unspecified),15.7 µM,23 µM,7.13 µM
CC1=C(C(C)C(=O)N(CCNC(C)C)C(C)C)c2cc(F)ccc2/C1=C\c1ccc([S+](C)[O-])cc1 (stereo unspecified),15.2 µM,21.3 µM,8.06 µM
CSc1ccc(/C=C2/C(C)=C(C(C)C(=O)NCc3ccco3)c3cc(F)ccc32)cc1 (stereo unspecified),23.5 µM,26.1 µM,11.2 µM
CCN(CC)CCN(CC)C(=O)C(C)C1=C(C)/C(=C/c2ccc(SC)cc2)c2ccc(F)cc21 (stereo unspecified),6.59 µM,5.98 µM,2.31 µM
CSc1ccc(/C=C2/C(C)=C(C(C)C(=O)NCCN3CCCCC3)c3cc(F)ccc32)cc1 (stereo unspecified),5.06 µM,5.32 µM,2.03 µM
CCN(CC)CCN(C)C(=O)C(C)C1=C(C)/C(=C/c2ccc([S+](C)[O-])cc2)c2ccc(F)cc21 (stereo unspecified),29.3 µM,> 50 µM,5.83 µM
CC1=C(C(C)C(=O)N(C)CCCN(C)C)c2cc(F)ccc2/C1=C\c1ccc([S+](C)[O-])cc1 (stereo unspecified),> 50 µM,> 50 µM,16.6 µM
COC(=O)[C@H](Cc1c[nH]cn1)NC(=O)C(C)C1=C(C)/C(=C/c2ccc(SC)cc2)c2ccc(F)cc21 (stereo partly specified),14.4 µM,12.7 µM,6.62 µM
CC1=C(C(C)C(=O)NCc2ccccc2)c2cc(F)ccc2/C1=C\c1ccc([S+](C)[O-])cc1 (stereo unspecified),15.7 µM,26 µM,17.2 µM
COc1cc(/C=C2/C(C)=C(C(C)C(=O)N3CCN(CCCN(C)C)CC3)c3cc(F)ccc32)cc(OC)c1OC (stereo unspecified),9.61 µM,7.34 µM,3.69 µM
CCN1CCC[C@H]1CNC(=O)C(C)C1=C(C)/C(=C/c2ccc(SC)cc2)c2ccc(F)cc21 (stereo partly specified),4.24 µM,3.49 µM,1.1 µM
COC(=O)[C@H](Cc1c[nH]cn1)NC(=O)C(C)C1=C(C)/C(=C/c2ccc([S+](C)[O-])cc2)c2ccc(F)cc21 (stereo partly specified),> 50 µM,> 50 µM,> 50 µM
CSc1ccc(/C=C2/C(C)=C(C(C)C(=O)N3CCN(CCCN(C)C)CC3)c3cc(F)ccc32)cc1 (stereo unspecified),4.14 µM,3.06 µM,1.5 µM
CC1=C(C(C)C(=O)NCCN2CCNCC2)c2cc(F)ccc2/C1=C\c1ccc([S+](C)[O-])cc1 (stereo unspecified),> 50 µM,> 50 µM,> 50 µM
CCNCCN(CC)C(=O)C(C)C1=C(C)/C(=C/c2ccc([S+](C)[O-])cc2)c2ccc(F)cc21 (stereo unspecified),26.3 µM,27.9 µM,9.99 µM
CCN(CC)CCN(CC)C(=O)C(C)C1=C(C)/C(=C/c2ccc([S+](C)[O-])cc2)c2ccc(F)cc21 (stereo unspecified),19.7 µM,23.5 µM,4.45 µM
CC1=C(C(C)C(=O)NCc2ccco2)c2cc(F)ccc2/C1=C\c1ccc([S+](C)[O-])cc1 (stereo unspecified),> 50 µM,> 50 µM,> 50 µM
"CSc1ccc(/C=C2/C(C)=C(C(C)C(=O)N(C)CCN(C)C(=O)C3CCCN3)c3cc(F)ccc32)cc1 (single isomer, unassigned)",5.21 µM,3.99 µM,2.06 µM
CC1=C(C(C)C(=O)N2CCC(N3CCCCC3)CC2)c2cc(F)ccc2/C1=C\c1ccc([S+](C)[O-])cc1 (stereo unspecified),> 50 µM,> 50 µM,48.4 µM

SMILES,CC50 (PC-3),CC50 (MDA-MB-231),CC50 (HT-29)
CC1=C(C(C)C(=O)N(C)CCN(C)C(=O)[C@@H](N)C(C)C)c2cc(F)ccc2/C1=C\c1ccc([S+](C)[O-])cc1 (stereo partly specified),28.8 µM,47.6 µM,26 µM
CC1=C(C(C)C(=O)NCCN2CCCCC2)c2cc(F)ccc2/C1=C\c1ccc([S+](C)[O-])cc1 (stereo unspecified),36.3 µM,39.3 µM,9.67 µM
COc1cc(/C=C2/C(C)=C(C(C)C(=O)NCc3ccco3)c3cc(F)ccc32)cc(OC)c1OC (stereo unspecified),3.88 µM,5.51 µM,2.88 µM
COC(=O)[C@@H](Cc1c[nH]cn1)NC(=O)C(C)C1=C(C)/C(=C/c2ccc(SC)cc2)c2ccc(F)cc21 (stereo partly specified),16.8 µM,15 µM,10.7 µM
CCNCCCN(CC)C(=O)C(C)C1=C(C)/C(=C/c2ccc([S+](C)[O-])cc2)c2ccc(F)cc21 (stereo unspecified),24.8 µM,25.6 µM,6.98 µM
CSc1ccc(/C=C2/C(C)=C(C(C)C(=O)N3CCC(N4CCCCC4)CC3)c3cc(F)ccc32)cc1 (stereo unspecified),4.36 µM,4.3 µM,1.89 µM
CCNCCCN(CC)C(=O)C(C)C1=C(C)/C(=C/c2ccc(SC)cc2)c2ccc(F)cc21 (stereo unspecified),4.6 µM,3.97 µM,2.01 µM
CNCCN(C)C(=O)C(C)C1=C(C)/C(=C/c2ccc([S+](C)[O-])cc2)c2ccc(F)cc21 (stereo unspecified),27.9 µM,> 50 µM,10.7 µM
CC1=C(C(C)C(=O)N2CCN(c3ccncc3)CC2)c2cc(F)ccc2/C1=C\c1ccc([S+](C)[O-])cc1 (stereo unspecified),10.5 µM,19.6 µM,4.99 µM
CCN(CC)CCCNC(=O)C(C)C1=C(C)/C(=C/c2ccc([S+](C)[O-])cc2)c2ccc(F)cc21 (stereo unspecified),> 50 µM,> 50 µM,15.5 µM
CNCCN(C)C(=O)C(C)C1=C(C)/C(=C/c2ccc(SC)cc2)c2ccc(F)cc21 (stereo unspecified),4.06 µM,3.21 µM,1.31 µM
CC1=C(C(C)C(=O)NCCN2CCCC2)c2cc(F)ccc2/C1=C\c1ccc([S+](C)[O-])cc1 (stereo unspecified),31.9 µM,39.2 µM,13.7 µM
CSc1ccc(/C=C2/C(C)=C(C(C)C(=O)NCc3ccccc3)c3cc(F)ccc32)cc1 (stereo unspecified),> 50 µM,> 50 µM,22.9 µM
CC1=C(C(C)C(=O)NCCCN(C)C)c2cc(F)ccc2/C1=C\c1ccc([S+](C)[O-])cc1 (stereo unspecified),> 50 µM,> 50 µM,22.5 µM
CC1=C(C(C)C(=O)N2CCN(CCN(C)C)CC2)c2cc(F)ccc2/C1=C\c1ccc([S+](C)[O-])cc1 (stereo unspecified),50 µM,> 50 µM,38.4 µM
CCN(CC)CCN(C)C(=O)C(C)C1=C(C)/C(=C/c2ccc(SC)cc2)c2ccc(F)cc21 (stereo unspecified),7.27 µM,6.71 µM,2.22 µM
CNCCCN(C)C(=O)C(C)C1=C(C)/C(=C/c2ccc(SC)cc2)c2ccc(F)cc21 (stereo unspecified),4.96 µM,3.83 µM,1.98 µM
CSc1ccc(/C=C2/C(C)=C(C(C)C(=O)N(C)CCN(C)C(=O)[C@@H](N)C(C)C)c3cc(F)ccc32)cc1 (stereo partly specified),4.83 µM,3.86 µM,2.22 µM
CC1=C(C(C)C(=O)N(C)CCN(C)C)c2cc(F)ccc2/C1=C\c1ccc([S+](C)[O-])cc1 (stereo unspecified),44.6 µM,> 50 µM,11.8 µM
CCN(CCN(C)C)C(=O)C(C)C1=C(C)/C(=C/c2ccc([S+](C)[O-])cc2)c2ccc(F)cc21 (stereo unspecified),28.1 µM,32 µM,9.51 µM
CSc1ccc(/C=C2/C(C)=C(C(C)C(=O)NCCCN(C)C)c3cc(F)ccc32)cc1 (stereo unspecified),7.24 µM,6.42 µM,2.58 µM
